One test relates to B. fragilis NCTC 10581. The experiment in a line: anti-anaerobic activity, MIC/MBC in 96 well microtitre plates, strain A. The settings on record: Bacteroides fragilis, NCTC10581, 48 h, strain A; for MBC: 99.9% reduction in viable count after 48 hours, read-out: MBC (Minimum Bactericidal Concentration); for MIC: 48 hours at 37° C., anaerobic chamber, 10^5 cells/ml, read-out: MIC (Minimum Inhibitory Concentration). Type of test: cell-based, Bacteroides fragilis.

In test [1] the test system is B. fragilis MZ-R ATCC 11295. The experiment in a line: anti-anaerobic activity, MIC/MBC in 96 well microtitre plates, strain D. Conditions: Bacteroides fragilis, ATCC11295, 48 h; for MBC: 99.9% reduction in viable count after 48 hours, read-out: MBC (Minimum Bactericidal Concentration); for MIC: 48 hours at 37° C., anaerobic chamber, 10^5 cells/ml, read-out: MIC (Minimum Inhibitory Concentration). Type of test: cell-based, Bacteroides fragilis. The procedure: The screening panel utilized in the Example consisted of 5 strains of Bacteroides fragilis. All assays were carried out in 96 well microtitre plates. If an isolate was obtained from either a culture collection or clinical source, the isolate was immediately innoculated into Wilkens-Chalgren broth (Oxoid) and incubated at 37° C. in an anaerobic chamber in an atmosphere of 85% nitrogen, 10% carbon dioxide, and 5% hydrogen for 48 hours. At the end of this time, the viable count was about […] broth. A 1 ml aliquot of each culture was placed in an ampoule and quick frozen in acetone-dry ice mixture and stored in liquid nitrogen. When an inoculum was utilized in an assay, one of the ampoules was thawed and diluted with fresh broth to yield a suspension having a count of 5×10^5 organisms/ml. A 100 μl aliquot of the suspension was inoculated into each well of the microtitre plate. A 2 mg sample of the test compound wa dissolved in 0.2 ml of a suitable solvent such as dimethylsulfoxide, polyethylene glycol 200 or methanol. The solution was then diluted with 4.8 ml of water to yield a solution having a concentration of 400 mg/L. Doubling dilutions of this stock were prepared to give a range of concentrations from 1.6-200 mg/L. 100 μl of each concentration were then placed in the wells of the microtitre plate containing the inoculum, to produce a final concentration range of 0.8-100 mg/l. Metronidazole was employed as a positive control and a solvent/water mixture was employed as a negative control. After addition of the test solution the final inoculum level was 10^5 cells/ml. The plates were incubated for 48 hours at 37° C. in the anaerobic chamber. The Minimum Inhibitory Concentration (MIC) was read visually. The MIC is defined as the lowest concentration at which there is no detectable growth. The Minimum Bactericidal Concentration (MBC) was determined by taking a 50 μl aliquot from each well and placing it in fresh medium. […] The strains of Bacteroides fragilis utilized in the above procedure are identified by letter in accordance with the following legend: |D B. fragilis MZ-R ATCC 11295

For a further test, the system named is B. fragilis WS-1. The experiment in a line: anti-anaerobic activity, MIC/MBC in 96 well microtitre plates, strain E. It counts as cell-based. The settings on record: Bacteroides fragilis, strain E; for MIC: WS1, 48 h, 48 hours at 37° C., anaerobic chamber, 10^5 cells/ml, read-out: MIC (Minimum Inhibitory Concentration); for MBC: WS1, 99.9% reduction in viable count after 48 hours, read-out: MBC (Minimum Bactericidal Concentration).

The next test relates to B. fragilis NCTC 9343. The experiment in a line: anti-anaerobic activity, MIC/MBC in 96 well microtitre plates, strain B. Type of test: cell-based, Bacteroides fragilis. The settings on record: Bacteroides fragilis, strain B; for MIC: NCTC9343, 48 h, 48 hours at 37° C., anaerobic chamber, 10^5 cells/ml, read-out: MIC (Minimum Inhibitory Concentration); for MBC: NCTC9343, 99.9% reduction in viable count after 48 hours, read-out: MBC (Minimum Bactericidal Concentration).

The next test has as its system B. fragilis NCTC 9344. The experiment in a line: anti-anaerobic activity, MIC/MBC in 96 well microtitre plates, strain C. Type of test: cell-based, Bacteroides fragilis. The settings on record: Bacteroides fragilis, NCTC9344, 48 h, strain C; for MBC: 99.9% reduction in viable count after 48 hours, read-out: MBC (Minimum Bactericidal Concentration); for MIC: 48 hours at 37° C., anaerobic chamber, 10^5 cells/ml, read-out: MIC (Minimum Inhibitory Concentration).

Test [2] deals with Peptococcus prevotti ATCC 9321. As to the kind of experiment: anti-anaerobic activity, MIC (procedures of Example 13). It counts as cell-based. Conditions: Peptococcus prevotti ATCC 9321; procedures of Example 13 (there mg/L); read-out: MIC.
Test [3] concerns Peptococcus magnus ATCC 29328. The description is as above. Conditions: Finegoldia magna, ATCC29328; Peptococcus magnus ATCC 29328; procedures of Example 13 (there mg/L); read-out: MIC. It counts as cell-based.
Test [4] concerns Campylobacter fetus ATCC 29428. The test is described as above. Type of test: cell-based. The settings on record: ATCC29428, procedures of Example 13 (there mg/L).
Test [5] deals with Propionibacterium acnes NCTC 7337. The description is as above. Type of test: cell-based. Conditions: Cutibacterium acnes, NCTC7337, procedures of Example 13 (there mg/L).
Test [6] has as its system Peptostreptococcus anaerobicus ATCC 27337. The description is as above. Conditions: ATCC27337; Peptostreptococcus anaerobicus ATCC 27337; procedures of Example 13 (there mg/L); read-out: MIC. It counts as cell-based.
Test [7] deals with Clostridium perfringens NCTC 523. The experiment in a line: microbe, parasite or virus in culture. Type of test: cell-based. Conditions: NCTC523.
Test [8] deals with Clostridium perfringens NCTC 8237. As to the kind of experiment: microbe, parasite or virus in culture. Type of test: cell-based. The settings on record: NCTC8237.
The test system of test [9] is Fusobacterium necrophorum ATCC 11295. The experiment in a line: anti-anaerobic activity, MIC (procedures of Example 13). Type of test: cell-based. The settings on record: ATCC11295, procedures of Example 13 (there mg/L).
The test system of test [10] is Propionibacterium acnes NCTC 737. The description is as above. Conditions: Cutibacterium acnes, NCTC737, procedures of Example 13 (there mg/L). It counts as cell-based.

Data on 7 compounds can be found in US4761483A, “Chloro-substituted ketone imidazole derivatives” (G. D. Searle & Co., priority 1985, dated 1988).

≈ marks a conversion by molar mass, not a printed value. Structures can show the parent of a compound that is named as a salt.

As to `C[C@H](NC(=O)[C@@H](N)Cc1cn(CC(Cl)(C(=O)c2ccc(Cl)cc2Cl)c2ccccc2)cn1)C(=O)O` (stereo partly drawn) [Example 10, N-[1-[2-Chloro-3-(2,4-dichlorophenyl)-3-oxo-2-phenylpropyl]-L-histidyl]-L-alanine], the MBC is 3.1 µg/mL (≈ 5.76 µM) with B. fragilis NCTC 10581; 0.8 µg/mL (≈ 1.49 µM) in test [1]; 6.2 µg/mL (≈ 11.5 µM) in the test on B. fragilis WS-1; 3.1 µg/mL (≈ 5.76 µM) in the test with B. fragilis NCTC 9343; 6.2 µg/mL (≈ 11.5 µM) in the test on B. fragilis NCTC 9344. In addition, the MIC stood at 3.1 µg/mL (≈ 5.76 µM) in the test with B. fragilis NCTC 10581; 0.8 µg/mL (≈ 1.49 µM) in test [1]; 6.2 µg/mL (≈ 11.5 µM) in the test on B. fragilis WS-1; 3.1 µg/mL (≈ 5.76 µM) in the test with B. fragilis NCTC 9343; 3.1 µg/mL (≈ 5.76 µM) with B. fragilis NCTC 9344.
For `O=C(c1ccc(Cl)cc1Cl)C(Cl)(Cn1ccnc1)c1ccccc1` (stereo not shown) [Example 4, 2-Chloro-1-(2,4-dichlorophenyl)-3-(imidazol-1-yl)-2-phenylpropan-1-one], the MBC was determined as 6.2 µg/mL (≈ 16.3 µM) with B. fragilis NCTC 10581; 3.1 µg/mL (≈ 8.16 µM) in [1]; 6.2 µg/mL (≈ 16.3 µM) in the test with B. fragilis WS-1; 6.2 µg/mL (≈ 16.3 µM) with B. fragilis NCTC 9343; 12.5 µg/mL (≈ 32.9 µM) in the test with B. fragilis NCTC 9344. The MIC (with B. fragilis NCTC 10581; in [2]; in test [3]; in test [1]; in test [4]; in test [5]) was 0.8 µg/mL (≈ 2.11 µM) in each case. In addition, the MIC (in test [6]; with B. fragilis WS-1; in the test on B. fragilis NCTC 9343; in [7]; in test [8]; in test [9]) was 0.8 µg/mL (≈ 2.11 µM) in each case. Moreover, the MIC (in the test with B. fragilis NCTC 9344; in [10]) was 0.8 µg/mL (≈ 2.11 µM) each time.
With `O=C(O)/C=C/c1cn(CC(Cl)(C(=O)c2ccc(Cl)cc2Cl)c2ccccc2)cn1` (stereo not shown) [Example 6, E-3-[1-[2-Chloro-3-(2,4-dichlorophenyl)-3-oxo-2-phenylpropyl]imidazol-1-yl]propenoic acid hydrochloride], the MBC came out at 0.8 µg/mL in the test with B. fragilis NCTC 10581; 0.8 µg/mL in test [1]; 3.1 µg/mL in the test on B. fragilis WS-1; 3.1 µg/mL in the test with B. fragilis NCTC 9343; 0.8 µg/mL with B. fragilis NCTC 9344. Also, the MIC in the test with B. fragilis NCTC 10581 was determined as 0.8 µg/mL; in test [1], 0.8 µg/mL; in the test with B. fragilis WS-1, 3.1 µg/mL; with B. fragilis NCTC 9343, 1.5 µg/mL; with B. fragilis NCTC 9344 it was 0.8 µg/mL.
In the case of `C[C@H](NC(=O)[C@@H](N)CCCCNC(=O)/C=C/c1cn(CC(Cl)(C(=O)c2ccc(Cl)cc2Cl)c2ccccc2)cn1)C(=O)O` (stereo partly drawn) [Example 12, N-[N^6-[E-3-[1-[2-Chloro-3-(2,4-dichlorophenyl)-3-oxo-2-phenylpropyl]imidazol-4-yl]propenoyl]-L-lysinyl]-L-alanine], the MBC in the test with B. fragilis NCTC 10581 amounted to 3.1 µg/mL (≈ 4.78 µM); in [1], 0.8 µg/mL (≈ 1.23 µM); in the test on B. fragilis WS-1, 6.2 µg/mL (≈ 9.55 µM); in the test on B. fragilis NCTC 9343 it was 1.5 µg/mL (≈ 2.31 µM); in the test with B. fragilis NCTC 9344 it was 3.1 µg/mL (≈ 4.78 µM). In addition, the MIC came out at 1.5 µg/mL (≈ 2.31 µM) in the test on B. fragilis NCTC 10581; 0.8 µg/mL (≈ 1.23 µM) in test [1]; 6.2 µg/mL (≈ 9.55 µM) with B. fragilis WS-1; 1.5 µg/mL (≈ 2.31 µM) in the test on B. fragilis NCTC 9343; 3.1 µg/mL (≈ 4.78 µM) with B. fragilis NCTC 9344.
Take `C[C@H](NC(=O)[C@H](Cc1cn(CC(Cl)(C(=O)c2ccc(Cl)cc2Cl)c2ccccc2)cn1)NC(=O)OC(C)(C)C)C(=O)OC(C)(C)C` (stereo partly drawn) [Example 9, N-[1-[2-Chloro-3-(2,4-dichlorophenyl)-3-oxo-2-phenylpropyl]-N-[(1,1-dimethylethoxy)carbonyl]-L-histidyl]-L-alanine 1,1-dimethylethyl ester]: the MBC in the test on B. fragilis NCTC 10581 came to 6.2 µg/mL (≈ 8.93 µM); in [1], 0.8 µg/mL (≈ 1.15 µM); in the test on B. fragilis WS-1, 12.5 µg/mL (≈ 18 µM); in the test on B. fragilis NCTC 9343 it was 3.1 µg/mL (≈ 4.47 µM); in the test with B. fragilis NCTC 9344, 6.2 µg/mL (≈ 8.93 µM). Moreover, the MIC was determined as 3.1 µg/mL (≈ 4.47 µM) in the test with B. fragilis NCTC 10581; 0.8 µg/mL (≈ 1.15 µM) in test [1]; 12.5 µg/mL (≈ 18 µM) with B. fragilis WS-1; 3.1 µg/mL (≈ 4.47 µM) in the test with B. fragilis NCTC 9343; 6.2 µg/mL (≈ 8.93 µM) in the test with B. fragilis NCTC 9344.
For the compound `COC(=O)CCc1cn(CC(Cl)(C(=O)c2ccc(Cl)cc2Cl)c2ccccc2)cn1` (stereo not shown) [Example 5, 3-[1-[2-Chloro-3-(2,4-dichlorophenyl)-3-oxo-2-phenylpropyl]-imidazol-4-yl]propanoic acid methyl ester], the MBC with B. fragilis NCTC 10581 was found to be 1.5 µg/mL (≈ 3.22 µM); in [1], 0.8 µg/mL (≈ 1.72 µM); in the test with B. fragilis WS-1, 3.1 µg/mL (≈ 6.66 µM); with B. fragilis NCTC 9343, 1.5 µg/mL (≈ 3.22 µM); with B. fragilis NCTC 9344, 1.5 µg/mL (≈ 3.22 µM). For the same compound, the MIC with B. fragilis NCTC 10581 amounted to 1.5 µg/mL (≈ 3.22 µM); in [1] it was 0.8 µg/mL (≈ 1.72 µM); in the test on B. fragilis WS-1, 3.1 µg/mL (≈ 6.66 µM); in the test with B. fragilis NCTC 9343 it was 1.5 µg/mL (≈ 3.22 µM); in the test with B. fragilis NCTC 9344 it was 1.5 µg/mL (≈ 3.22 µM).
Take `N[C@@H](Cc1cn(CC(Cl)(C(=O)c2ccc(Cl)cc2Cl)c2ccccc2)cn1)C(=O)O` (stereo partly drawn) [Example 8, 1-[2-Chloro-3-(2,4-dichlorophenyl)-3-oxo-2-phenylpropyl]-L-histidine]: the MBC worked out at 0.8 µg/mL (≈ 1.71 µM) in the test with B. fragilis NCTC 10581; 0.8 µg/mL (≈ 1.71 µM) in [1]; 3.1 µg/mL (≈ 6.64 µM) with B. fragilis WS-1; 0.8 µg/mL (≈ 1.71 µM) with B. fragilis NCTC 9343; 0.8 µg/mL (≈ 1.71 µM) with B. fragilis NCTC 9344. Also, the MIC with B. fragilis NCTC 10581 was 0.8 µg/mL (≈ 1.71 µM); in [1], 0.8 µg/mL (≈ 1.71 µM); in the test on B. fragilis WS-1 it was 3.1 µg/mL (≈ 6.64 µM); in the test with B. fragilis NCTC 9343 it was 0.8 µg/mL (≈ 1.71 µM); in the test on B. fragilis NCTC 9344 it was 0.8 µg/mL (≈ 1.71 µM).
